{"source": "paper PMC11089506", "about": "(Journal of Medicinal Chemistry, 2024)", "key": {"Adenosine receptor A2A": {"biological_target": "T1, Adenosine receptor A2A (Homo sapiens, UniProt P29274)", "T1 construct": "Eurofins", "T1 sequence (P29274 whole entry)": "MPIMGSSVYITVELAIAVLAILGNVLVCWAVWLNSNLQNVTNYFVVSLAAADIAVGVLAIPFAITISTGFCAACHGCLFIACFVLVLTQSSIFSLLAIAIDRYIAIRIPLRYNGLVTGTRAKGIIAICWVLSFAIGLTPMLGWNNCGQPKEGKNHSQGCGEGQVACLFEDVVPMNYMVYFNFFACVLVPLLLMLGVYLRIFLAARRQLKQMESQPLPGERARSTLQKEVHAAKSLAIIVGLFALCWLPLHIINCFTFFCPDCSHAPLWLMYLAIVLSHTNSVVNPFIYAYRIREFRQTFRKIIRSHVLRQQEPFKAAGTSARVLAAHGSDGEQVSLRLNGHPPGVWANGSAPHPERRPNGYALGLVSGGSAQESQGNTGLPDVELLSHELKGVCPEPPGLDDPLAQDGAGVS", "experiment": "radioligand competition binding, [3H]CGS-21680"}, "[1]": {"biological_target": "T2, α2A (adrenergic receptor) (Homo sapiens, UniProt P08913)", "T2 construct": "Eurofins", "T2 sequence (P08913 1-465)": "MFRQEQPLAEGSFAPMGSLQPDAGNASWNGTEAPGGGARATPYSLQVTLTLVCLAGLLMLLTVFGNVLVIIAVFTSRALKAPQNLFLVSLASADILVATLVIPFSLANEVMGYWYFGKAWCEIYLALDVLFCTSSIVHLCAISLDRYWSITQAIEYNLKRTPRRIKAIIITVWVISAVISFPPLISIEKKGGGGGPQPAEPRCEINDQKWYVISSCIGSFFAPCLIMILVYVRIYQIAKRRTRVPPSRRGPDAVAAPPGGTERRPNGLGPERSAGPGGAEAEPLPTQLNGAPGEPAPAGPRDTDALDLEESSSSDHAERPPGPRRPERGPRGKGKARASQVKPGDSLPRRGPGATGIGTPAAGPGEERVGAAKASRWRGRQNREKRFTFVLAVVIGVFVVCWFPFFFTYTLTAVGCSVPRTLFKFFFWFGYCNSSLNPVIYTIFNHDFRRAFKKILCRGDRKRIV", "experiment": "radioligand competition binding, [3H]RX 821002"}, "Phosphodiesterase": {"system": "Phosphodiesterase", "experiment": "radioligand competition binding, [3H]Rolipram", "set-up": "species or system rat"}, "GABAA receptor (GABA)": {"system": "GABAA receptor (GABA)", "experiment": "radioligand competition binding, [3H]Muscimol", "set-up": "species or system rat"}, "5-HT1A": {"biological_target": "T3, 5-HT1A (Homo sapiens, UniProt P08908)", "T3 construct": "Eurofins", "T3 sequence (P08908 1-422)": "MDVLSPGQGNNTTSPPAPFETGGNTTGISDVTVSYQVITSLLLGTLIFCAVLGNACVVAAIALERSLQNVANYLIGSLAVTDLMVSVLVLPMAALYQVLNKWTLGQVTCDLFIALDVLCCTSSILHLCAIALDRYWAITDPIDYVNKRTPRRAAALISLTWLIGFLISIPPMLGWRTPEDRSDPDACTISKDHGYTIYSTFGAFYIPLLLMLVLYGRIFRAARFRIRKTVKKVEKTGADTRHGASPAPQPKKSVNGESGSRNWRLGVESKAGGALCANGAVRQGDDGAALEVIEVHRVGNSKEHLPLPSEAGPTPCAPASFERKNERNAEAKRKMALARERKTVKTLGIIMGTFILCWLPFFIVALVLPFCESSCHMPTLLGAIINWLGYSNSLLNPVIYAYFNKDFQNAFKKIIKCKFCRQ", "experiment": "radioligand competition binding, [3H]8-OH-DPAT"}, "NMDA receptor (PCP)": {"system": "NMDA receptor (PCP)", "experiment": "radioligand competition binding, [3H]TCP", "set-up": "species or system rat"}, "Endothelin receptor ETB": {"biological_target": "T4, Endothelin receptor ETB (Homo sapiens, UniProt P24530)", "T4 construct": "Eurofins", "T4 sequence (P24530 27-442)": "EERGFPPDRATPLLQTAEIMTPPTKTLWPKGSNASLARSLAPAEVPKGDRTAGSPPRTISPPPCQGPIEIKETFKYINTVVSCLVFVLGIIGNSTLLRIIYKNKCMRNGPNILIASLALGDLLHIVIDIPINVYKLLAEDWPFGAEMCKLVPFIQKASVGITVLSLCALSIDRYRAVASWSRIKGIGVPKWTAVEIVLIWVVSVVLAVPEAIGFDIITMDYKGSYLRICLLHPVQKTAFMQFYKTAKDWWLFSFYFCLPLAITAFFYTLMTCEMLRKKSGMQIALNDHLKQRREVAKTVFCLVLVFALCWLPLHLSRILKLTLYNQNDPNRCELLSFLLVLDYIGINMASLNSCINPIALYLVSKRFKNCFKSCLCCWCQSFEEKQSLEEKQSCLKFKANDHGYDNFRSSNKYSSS", "experiment": "radioligand competition binding, [125I]Endothelin-1"}, "Purinergic receptor P2X": {"system": "Purinergic receptor P2X", "experiment": "radioligand competition binding, [3H]α,β-Methylene-ATP", "set-up": "species or system rat"}, "Opioid receptor δ": {"biological_target": "T5, Opioid receptor δ (Homo sapiens, UniProt P41143)", "T5 construct": "Eurofins", "T5 sequence (P41143 whole entry)": "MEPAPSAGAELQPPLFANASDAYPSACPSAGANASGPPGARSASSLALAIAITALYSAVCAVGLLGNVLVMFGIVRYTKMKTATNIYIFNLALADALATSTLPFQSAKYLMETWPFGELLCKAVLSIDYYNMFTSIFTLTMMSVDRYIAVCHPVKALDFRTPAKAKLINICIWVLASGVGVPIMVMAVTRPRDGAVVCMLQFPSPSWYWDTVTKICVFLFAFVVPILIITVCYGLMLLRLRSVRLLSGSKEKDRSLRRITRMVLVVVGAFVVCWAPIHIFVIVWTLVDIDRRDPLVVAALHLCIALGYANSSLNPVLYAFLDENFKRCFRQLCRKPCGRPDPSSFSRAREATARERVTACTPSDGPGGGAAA", "experiment": "radioligand competition binding, [3H] Naltrindole"}, "human 5-HT2BR": {"biological_target": "T6, human 5-HT2BR (Homo sapiens, UniProt P41595)", "T6 construct": "host or cells: HEK293 (membrane homogenates)", "experiment": "Calcium No Wash PLUS assay, 5-HT2BR-HEK293 cells (Eurofins)", "type": "cell-based", "conditions": "fluorescence-based Ca2+ imaging assay"}, "Melatonin receptor MT1": {"biological_target": "T7, Melatonin receptor MT1 (Homo sapiens, UniProt P48039)", "T7 construct": "Eurofins", "T7 sequence (P48039 whole entry)": "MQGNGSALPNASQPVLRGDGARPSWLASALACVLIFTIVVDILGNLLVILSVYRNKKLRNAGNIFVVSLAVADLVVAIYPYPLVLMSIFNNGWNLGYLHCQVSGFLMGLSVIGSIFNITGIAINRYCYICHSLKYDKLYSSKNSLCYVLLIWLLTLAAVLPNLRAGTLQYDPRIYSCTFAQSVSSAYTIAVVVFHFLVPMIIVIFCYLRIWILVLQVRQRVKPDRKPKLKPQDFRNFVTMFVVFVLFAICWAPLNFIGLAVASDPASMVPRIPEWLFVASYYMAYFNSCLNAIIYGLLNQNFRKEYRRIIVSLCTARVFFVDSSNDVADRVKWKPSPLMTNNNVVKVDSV", "experiment": "radioligand competition binding, [125I]2-Iodomelatonin"}, "Cannabinoid receptor CB1": {"biological_target": "T8, Cannabinoid receptor CB1 (Homo sapiens, UniProt P21554)", "T8 construct": "Eurofins", "T8 sequence (P21554 whole entry)": "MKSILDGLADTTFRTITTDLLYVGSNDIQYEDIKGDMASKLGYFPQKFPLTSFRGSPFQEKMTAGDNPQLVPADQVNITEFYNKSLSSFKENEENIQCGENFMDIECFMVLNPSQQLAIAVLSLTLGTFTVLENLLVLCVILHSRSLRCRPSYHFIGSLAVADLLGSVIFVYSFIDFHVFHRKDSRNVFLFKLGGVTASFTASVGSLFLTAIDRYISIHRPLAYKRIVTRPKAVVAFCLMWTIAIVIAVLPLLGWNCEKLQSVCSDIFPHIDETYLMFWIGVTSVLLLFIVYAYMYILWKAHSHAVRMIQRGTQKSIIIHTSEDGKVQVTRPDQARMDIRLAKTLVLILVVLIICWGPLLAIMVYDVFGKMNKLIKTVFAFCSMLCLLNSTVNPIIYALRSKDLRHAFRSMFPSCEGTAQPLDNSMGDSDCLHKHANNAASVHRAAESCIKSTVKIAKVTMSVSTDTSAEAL", "experiment": "radioligand competition binding, [3H]SR141716A"}, "Kainate receptor": {"system": "Kainate receptor", "experiment": "radioligand competition binding, [3H]Kainic acid", "set-up": "species or system rat"}, "5-HT4e": {"biological_target": "T9, 5-HT4e (Homo sapiens, UniProt Q13639)", "T9 construct": "Eurofins", "T9 sequence (Q13639 1-378 isoform Q13639-5)": "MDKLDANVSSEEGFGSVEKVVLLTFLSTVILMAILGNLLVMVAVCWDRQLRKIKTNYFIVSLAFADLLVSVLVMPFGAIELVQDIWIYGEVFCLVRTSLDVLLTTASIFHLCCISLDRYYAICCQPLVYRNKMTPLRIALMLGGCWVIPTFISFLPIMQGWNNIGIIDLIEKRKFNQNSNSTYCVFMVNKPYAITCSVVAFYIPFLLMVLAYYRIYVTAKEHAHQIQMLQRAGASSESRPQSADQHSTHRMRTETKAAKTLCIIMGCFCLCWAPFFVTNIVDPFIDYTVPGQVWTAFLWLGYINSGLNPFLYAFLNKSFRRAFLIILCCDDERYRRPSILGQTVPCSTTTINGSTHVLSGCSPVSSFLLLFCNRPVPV", "experiment": "radioligand competition binding, [3H]GR 113808"}, "[2]": {"biological_target": "T10, D3 (dopaminergic receptor) (Homo sapiens, UniProt P35462)", "T10 construct": "Eurofins", "experiment": "radioligand competition binding, [3H]methyl-spiperone", "conditions": "read-out: % inhibition of the specific radioligand binding"}, "Phorbol ester": {"system": "Phorbol ester", "experiment": "radioligand competition binding, [3H]PDBu", "set-up": "species or system mouse"}, "Adenosine receptor A3": {"biological_target": "T11, Adenosine receptor A3 (Homo sapiens, UniProt P0DMS8)", "T11 construct": "Eurofins", "T11 sequence (P0DMS8 whole entry)": "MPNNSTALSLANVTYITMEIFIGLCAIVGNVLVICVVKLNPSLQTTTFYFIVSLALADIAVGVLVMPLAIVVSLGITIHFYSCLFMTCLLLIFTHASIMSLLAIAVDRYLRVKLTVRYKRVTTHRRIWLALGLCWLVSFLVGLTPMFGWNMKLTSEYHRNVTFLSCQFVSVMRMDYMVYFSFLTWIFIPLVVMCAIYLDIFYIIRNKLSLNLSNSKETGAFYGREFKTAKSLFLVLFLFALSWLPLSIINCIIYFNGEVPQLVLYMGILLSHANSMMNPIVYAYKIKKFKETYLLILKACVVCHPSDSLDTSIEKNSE", "experiment": "radioligand competition binding, [125I]AB-MECA"}, "Adrenergic receptor α1B": {"biological_target": "T12, Adrenergic receptor α1B (Homo sapiens, UniProt P35368)", "T12 construct": "Eurofins", "T12 sequence (P35368 whole entry)": "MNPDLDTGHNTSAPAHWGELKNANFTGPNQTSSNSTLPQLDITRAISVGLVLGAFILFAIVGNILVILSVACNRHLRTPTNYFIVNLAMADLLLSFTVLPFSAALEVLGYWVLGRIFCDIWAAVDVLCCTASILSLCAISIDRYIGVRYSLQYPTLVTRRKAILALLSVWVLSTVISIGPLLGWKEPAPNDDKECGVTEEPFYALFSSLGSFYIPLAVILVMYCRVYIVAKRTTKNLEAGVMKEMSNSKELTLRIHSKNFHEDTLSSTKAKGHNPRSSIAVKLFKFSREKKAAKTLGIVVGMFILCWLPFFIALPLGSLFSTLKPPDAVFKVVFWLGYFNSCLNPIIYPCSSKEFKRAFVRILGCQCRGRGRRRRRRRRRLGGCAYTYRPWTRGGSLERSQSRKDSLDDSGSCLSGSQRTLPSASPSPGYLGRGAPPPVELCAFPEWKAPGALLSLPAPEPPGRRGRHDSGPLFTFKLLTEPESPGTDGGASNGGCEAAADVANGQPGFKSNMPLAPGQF", "experiment": "radioligand competition binding, [3H]Prazosin"}, "K+ Channel (KATP)": {"biological_target": "T13, K+ Channel (KATP) (Cricetus cricetus, UniProt Q09427)", "T13 construct": "Eurofins", "T13 sequence (Q09427 whole entry)": "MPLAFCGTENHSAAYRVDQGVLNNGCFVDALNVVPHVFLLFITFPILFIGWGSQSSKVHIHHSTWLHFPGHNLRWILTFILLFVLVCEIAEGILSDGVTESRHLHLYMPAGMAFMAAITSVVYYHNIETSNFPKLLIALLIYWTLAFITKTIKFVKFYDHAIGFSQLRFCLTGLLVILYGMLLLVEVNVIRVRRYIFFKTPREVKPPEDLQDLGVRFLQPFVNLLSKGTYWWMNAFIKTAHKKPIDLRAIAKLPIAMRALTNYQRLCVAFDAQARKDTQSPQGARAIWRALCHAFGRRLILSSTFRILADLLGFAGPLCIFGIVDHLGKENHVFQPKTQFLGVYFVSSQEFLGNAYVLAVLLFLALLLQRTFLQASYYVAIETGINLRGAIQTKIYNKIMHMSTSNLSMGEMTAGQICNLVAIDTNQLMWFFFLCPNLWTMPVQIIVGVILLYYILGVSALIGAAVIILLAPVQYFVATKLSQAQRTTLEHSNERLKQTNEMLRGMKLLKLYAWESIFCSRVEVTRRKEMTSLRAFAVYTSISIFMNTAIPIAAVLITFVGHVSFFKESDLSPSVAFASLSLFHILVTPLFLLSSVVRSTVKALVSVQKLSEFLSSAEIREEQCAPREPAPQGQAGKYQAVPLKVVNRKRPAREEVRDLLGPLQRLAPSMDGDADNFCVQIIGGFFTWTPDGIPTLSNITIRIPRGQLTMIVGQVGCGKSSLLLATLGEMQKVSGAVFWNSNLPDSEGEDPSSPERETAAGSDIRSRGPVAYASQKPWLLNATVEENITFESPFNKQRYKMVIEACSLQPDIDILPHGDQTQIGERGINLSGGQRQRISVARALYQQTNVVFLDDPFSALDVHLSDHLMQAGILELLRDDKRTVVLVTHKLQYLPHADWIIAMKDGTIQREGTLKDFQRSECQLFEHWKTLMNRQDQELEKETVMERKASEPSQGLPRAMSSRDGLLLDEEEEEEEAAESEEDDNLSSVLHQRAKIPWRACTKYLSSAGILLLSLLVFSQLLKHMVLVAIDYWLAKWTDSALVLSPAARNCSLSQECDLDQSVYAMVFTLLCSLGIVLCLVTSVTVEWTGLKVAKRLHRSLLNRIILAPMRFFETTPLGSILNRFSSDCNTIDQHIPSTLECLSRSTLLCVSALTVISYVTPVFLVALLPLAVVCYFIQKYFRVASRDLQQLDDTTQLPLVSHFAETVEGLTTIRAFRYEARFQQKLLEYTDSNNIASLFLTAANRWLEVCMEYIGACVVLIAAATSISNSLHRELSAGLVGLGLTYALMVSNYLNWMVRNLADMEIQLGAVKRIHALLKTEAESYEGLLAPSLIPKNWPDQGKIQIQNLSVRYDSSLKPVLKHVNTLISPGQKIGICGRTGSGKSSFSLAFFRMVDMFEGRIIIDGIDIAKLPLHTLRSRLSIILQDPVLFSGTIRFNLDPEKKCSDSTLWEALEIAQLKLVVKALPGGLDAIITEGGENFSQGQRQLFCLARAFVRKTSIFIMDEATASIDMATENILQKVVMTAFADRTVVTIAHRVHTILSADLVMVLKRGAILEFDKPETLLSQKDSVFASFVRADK", "experiment": "radioligand competition binding, [3H]Glyburide", "set-up": "species or system hamster"}, "[3]": {"biological_target": "Ca2+ Channel L-Type, (Benzothiazepine) (Rattus norvegicus, UniProt P22002)", "experiment": "biochemical", "conditions": "read-out: % inhibition of the specific radioligand binding"}, "M1 (muscarinic receptor)": {"biological_target": "T14, M1 (muscarinic receptor) (Homo sapiens, UniProt P11229)", "T14 construct": "Eurofins", "T14 sequence (P11229 1-460)": "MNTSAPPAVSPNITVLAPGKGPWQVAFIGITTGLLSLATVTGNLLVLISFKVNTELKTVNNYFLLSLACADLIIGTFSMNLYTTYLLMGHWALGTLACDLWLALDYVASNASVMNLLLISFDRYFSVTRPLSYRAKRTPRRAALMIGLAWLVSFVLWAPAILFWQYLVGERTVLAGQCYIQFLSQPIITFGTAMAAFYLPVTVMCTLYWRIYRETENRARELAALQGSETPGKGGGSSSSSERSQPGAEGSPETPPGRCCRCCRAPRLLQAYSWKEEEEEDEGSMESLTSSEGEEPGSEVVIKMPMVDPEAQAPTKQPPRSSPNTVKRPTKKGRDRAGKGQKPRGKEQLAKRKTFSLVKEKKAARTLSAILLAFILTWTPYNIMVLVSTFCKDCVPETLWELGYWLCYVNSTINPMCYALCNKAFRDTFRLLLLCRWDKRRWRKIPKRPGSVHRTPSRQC", "experiment": "radioligand competition binding, [3H]pirenzepine"}, "[4]": {"conditions": "estimated from the % inhibition data"}, "[5]": {"conditions": "read-out: % inhibition of the specific radioligand binding"}}, "note": "Where a name gives a salt, the structure may show the parent alone."}
{"smiles": "COc1cc(C(F)(F)F)c(OC)cc1[C@@H]1CCCNC1", "note": "[(S)-11, 3-(2,5-Dimethoxy-4-(trifluoromethyl)phenyl)piperidine Hydrochloride]", "values": [{"measurement": "IC50", "setting": "Adenosine receptor A2A; [4]", "value": "> 10", "unit": "µM"}, {"measurement": "inhibition at 10 µM", "setting": "Adenosine receptor A2A; [5]", "value": -19, "unit": "%"}, {"measurement": "IC50", "setting": "[1]; [4]", "value": "> 10", "unit": "µM"}, {"measurement": "inhibition at 1 µM", "setting": "[1]; [5]", "value": 1, "unit": "%"}, {"measurement": "inhibition at 10 µM", "setting": "[1]; [5]", "value": 34, "unit": "%"}, {"measurement": "% inhibition of the specific radioligand binding", "setting": "Phosphodiesterase; (S)-11 10 μM, n=1", "value": 8, "unit": "%"}, {"measurement": "IC50", "setting": "Phosphodiesterase; [4]", "value": "> 10", "unit": "µM"}, {"measurement": "% inhibition of the specific radioligand binding", "setting": "GABAA receptor (GABA); (S)-11 10 μM, n=1", "value": 1, "unit": "%"}, {"measurement": "IC50", "setting": "GABAA receptor (GABA); [4]", "value": "> 10", "unit": "µM"}, {"measurement": "IC50", "setting": "5-HT1A; [4]", "value": "0.1 to 1", "unit": "µM"}, {"measurement": "inhibition at 0.1 µM", "setting": "5-HT1A; [5]", "value": 20, "unit": "%"}, {"measurement": "inhibition at 1 µM", "setting": "5-HT1A; [5]", "value": 64, "unit": "%"}, {"measurement": "inhibition at 10 µM", "setting": "5-HT1A; [5]", "value": 90, "unit": "%"}, {"measurement": "% inhibition of the specific radioligand binding", "setting": "NMDA receptor (PCP); (S)-11 10 μM, n=1", "value": 4, "unit": "%"}, {"measurement": "IC50", "setting": "NMDA receptor (PCP); [4]", "value": "> 10", "unit": "µM"}, {"measurement": "IC50", "setting": "Endothelin receptor ETB; [4]", "value": "> 10", "unit": "µM"}, {"measurement": "inhibition at 10 µM", "setting": "Endothelin receptor ETB; [5]", "value": -6, "unit": "%"}, {"measurement": "% inhibition of the specific radioligand binding", "setting": "Purinergic receptor P2X; (S)-11 10 μM, n=1", "value": -30, "unit": "%"}, {"measurement": "IC50", "setting": "Purinergic receptor P2X; [4]", "value": "> 10", "unit": "µM"}, {"measurement": "IC50", "setting": "Opioid receptor δ; [4]", "value": "> 10", "unit": "µM"}, {"measurement": "inhibition at 10 µM", "setting": "Opioid receptor δ; [5]", "value": 18, "unit": "%"}, {"measurement": "EC50", "setting": "human 5-HT2BR", "value": 0.19, "unit": "µM"}, {"measurement": "IC50", "setting": "Melatonin receptor MT1; [4]", "value": "> 10", "unit": "µM"}, {"measurement": "inhibition at 10 µM", "setting": "Melatonin receptor MT1; [5]", "value": 7, "unit": "%"}, {"measurement": "IC50", "setting": "Cannabinoid receptor CB1; [4]", "value": "> 10", "unit": "µM"}, {"measurement": "inhibition at 10 µM", "setting": "Cannabinoid receptor CB1; [5]", "value": 14, "unit": "%"}, {"measurement": "% inhibition of the specific radioligand binding", "setting": "Kainate receptor; (S)-11 10 μM, n=1", "value": 9, "unit": "%"}, {"measurement": "IC50", "setting": "Kainate receptor; [4]", "value": "> 10", "unit": "µM"}, {"measurement": "IC50", "setting": "5-HT4e; [4]", "value": "> 10", "unit": "µM"}, {"measurement": "inhibition at 10 µM", "setting": "5-HT4e; [5]", "value": 30, "unit": "%"}, {"measurement": "inhibition at 10 µM", "setting": "[2]", "value": 40, "unit": "%"}, {"measurement": "% inhibition of the specific radioligand binding", "setting": "Phorbol ester; (S)-11 10 μM, n=1", "value": 15, "unit": "%"}, {"measurement": "IC50", "setting": "Phorbol ester; [4]", "value": "> 10", "unit": "µM"}, {"measurement": "IC50", "setting": "Adenosine receptor A3; [4]", "value": "> 10", "unit": "µM"}, {"measurement": "inhibition at 10 µM", "setting": "Adenosine receptor A3; [5]", "value": -10, "unit": "%"}, {"measurement": "IC50", "setting": "Adrenergic receptor α1B; [4]", "value": "> 10", "unit": "µM"}, {"measurement": "inhibition at 10 µM", "setting": "Adrenergic receptor α1B; [5]", "value": 33, "unit": "%"}, {"measurement": "IC50", "setting": "K+ Channel (KATP); [4]", "value": "> 10", "unit": "µM"}, {"measurement": "inhibition at 10 µM", "setting": "K+ Channel (KATP); [5]", "value": -2, "unit": "%"}, {"measurement": "inhibition at 10 µM", "setting": "[3]", "value": 66, "unit": "%"}, {"measurement": "IC50", "setting": "M1 (muscarinic receptor); [4]", "value": "~1", "unit": "µM"}, {"measurement": "inhibition at 1 µM", "setting": "M1 (muscarinic receptor); [5]", "value": 51, "unit": "%"}, {"measurement": "inhibition at 10 µM", "setting": "M1 (muscarinic receptor); [5]", "value": 90, "unit": "%"}]}
